Results on two compounds are retold here after patent US20160121003A1, “METHODS FOR DIAGNOSING AND […] OF LEWY BODY DEMENTIA BY ASSESSING DOPAMINE T[…]” (Alseres Pharmaceuticals, Inc., priority 2007, published 2016).

Series [1] deals with T1, dopamine transporter (Macaca fascicularis, UniProt Q9GJT6).
T1 construct: host or cells: monkey striatum
Particulars: monkeys, in vivo and in vitro; density within range reported for the dopamine transporter; cited from earlier work.

For series [2], the target named is T2, dopamine transporter (Homo sapiens, UniProt Q01959). Particulars: cited from earlier work.
T2 sequence (Q01959 whole entry): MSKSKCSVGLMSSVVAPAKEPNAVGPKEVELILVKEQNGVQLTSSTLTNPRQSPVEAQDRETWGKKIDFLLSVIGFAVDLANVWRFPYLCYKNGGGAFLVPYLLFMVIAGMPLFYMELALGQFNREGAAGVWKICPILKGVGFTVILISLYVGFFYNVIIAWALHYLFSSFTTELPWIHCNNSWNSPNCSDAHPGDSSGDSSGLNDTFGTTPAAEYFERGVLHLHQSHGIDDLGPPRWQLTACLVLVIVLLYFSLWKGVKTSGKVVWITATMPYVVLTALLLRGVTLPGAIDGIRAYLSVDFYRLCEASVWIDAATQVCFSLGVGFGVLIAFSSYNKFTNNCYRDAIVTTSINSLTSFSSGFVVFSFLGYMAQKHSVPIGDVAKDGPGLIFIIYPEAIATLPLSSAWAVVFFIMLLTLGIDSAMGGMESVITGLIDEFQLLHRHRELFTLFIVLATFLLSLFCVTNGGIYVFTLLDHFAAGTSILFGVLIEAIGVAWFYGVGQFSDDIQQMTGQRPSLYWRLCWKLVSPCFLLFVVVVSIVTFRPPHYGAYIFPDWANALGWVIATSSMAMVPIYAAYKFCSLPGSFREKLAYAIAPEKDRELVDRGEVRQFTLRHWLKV
The target of series [3] is T2, dopamine transporter. The note with it: in vitro; cited from earlier work.
For series [4], the target named is T2, dopamine transporter. Kind of series: Dynamic SPECT time-activity study in Lewy Body Dementia and control subjects. Type of series: in vivo. On the set-up: from tissue; host or cells: human brain striatum in vivo (Lewy Body Dementia subjects and controls). The text has this: The following example summarizes single photon emission computed tomographic (SPECT) image acquisition, analysis methods for Lewy Body Dementia research participants and healthy controls participating in an ^123I-altropane SPECT imaging study. The experiment is an open label study evaluating time-activity curves and striatal dopamine transporter occupancy over the first hour post bolus injection of ^123I-altropane using temporally well-resolved dynamic SPECT in Lewy Body Dementia subjects and similarly aged healthy control subjects. In addition, for the Lewy Body Dementia subjects, a second injection and scan is performed on each subject on a separate test day to evaluate the test/retest reproducibility data for both visual and quantitative analyses.
Fifteen idiopathic Lewy Body Dementia subjects are recruited through local advertising and word-of-mouth for enrollment in the study. All fifteen subjects complete two separate injection and SPECT scan sessions with approximately […] (8 mCi) of ^123I-altropane. Subjects undergo assessment by a neurology specialist.
Twelve healthy controls subjects are recruited for participation in a single scan session with ^123I-altropane using the identical SPECT image acquisition protocol as the Lewy Body Dementia subjects. Healthy subjects are evaluated by a neurology specialist to confirm the absence of neurologic illness.
SPECT scans are acquired for 60 min following the intravenous injection with […] (8.0 mCi) of ^123I altropane. A series of dynamic SPECT scans are obtained as five scans at 6 minutes per acquisition followed by three scans at 10 minutes per acquisition. The subject remains in the camera for the duration of the acquisition. Each SPECT study is acquired on a Philips PRISM 3000XP triple-headed SPECT camera (Cleveland, Ohio, USA) fitted with fan-beam collimators. Each head rotates 360 degrees, sampling every 3 degrees for a total of 120 raw projection images per head. Projection data are collected in a 128×128 matrix within a symmetric energy window centered at 159 kEv (+/−10%).
Data are re-constructed using filtered back projection and a simple ramp filter followed by a post hoc (3-D) standardized low pass filter. Attenuation correction is performed applying a Chang 0 correction and a mu of 0.11 cm^−1 using a standard or custom software. Regions of interest (ROIs) are placed in the 3-head data scans with individual ROI sampling of the left and right caudate and putamen and an occipital background region. […] The mean striatal SBR scores are calculated as the mean of the left and right caudate and putamen SBR scores. […]
The time-activity data for mean striatal count densities and occipital background for each of the 8 images acquired in the 60 minutes post injection sampling period are plotted to permit visual interrogation of the uptake and washout characteristics of ^123I-altropane in Lew Body Dementia and controls. […] The peak SBR is assessed for each subject for data acquired using 1, 2, and all 3 heads of imaging data. […]

Series [5] in a line: Safety and tolerability of imaging agent in patients. Type of series: in vivo, human.
Series [6] concerns the target T2, dopamine transporter. Nature of the series: SPECT imaging of striatal binding potential, Lewy Body Dementia subjects versus controls. Type of series: in vivo. The arrangement: from tissue; host or cells: human brain striatum in vivo (Lewy Body Dementia subjects and controls).

T1 sequence (Q9GJT6 whole entry): as the sequence (Q01959 whole entry) above, with V24M, I137V, P194S, S198G, D200N, S201G, S202P counted along it

On to `COC(=O)C1C(c2ccc(F)cc2)CC2CCC1N2C/C=C/I` (stereo not drawn) [Altropane, 2β-carbomethoxy-3β-(4′-flurophenyl)-N-(3-iodo-E-allyl) nortropane], for which the “regional binding in brain” value on dopamine transporter [1] was “preferentially binds to dopamine rich areas of the striatum”. Also, the “selectivity for dopamine transporter compared to serotonin transporter” value at dopamine transporter [2] is reported as “high selectivity”. Moreover, the “binding site on the dopamine transporter” value at dopamine transporter [3] was “binds to a specific high-affinity site”. Besides, the “elimination from the brain” value on dopamine transporter [4] (most subjects) is on record as “rapidly eliminate”.
On to `COC(=O)[C@H]1[C@@H](c2ccc(F)cc2)C[C@@H]2CC[C@H]1N2C/C=C/[123I]` [^123I-Altropane, E-2β-carbomethoxy-3β-(4-fluorophenyl)-N-1(1-iodoprop-1-en-3) nortropane], for which the safety and tolerability entry in series [5] is “safe and well tolerated”. The “striatal binding potential versus expected levels for age matched normal individuals” value on dopamine transporter [6] (Example 1, six Lewy Body Dementia subjects, i.v., SPECT) is “reduced binding potential”. Also, the “uptake in striatum, Lewy Body Dementia subjects versus control adults” value on dopamine transporter [6] (Example 3) is on record as “lower”. In addition, at dopamine transporter [6] (Example 3, 8 LBD and 16 control adults, one-tailed t-test), the “binding potential, Lewy Body Dementia group versus control group” value is reported as “significantly lesser binding potential”. In addition, on dopamine transporter [4] (15 LBD subjects, about 30 minutes commencing 15 minutes after injection), the “test-retest reproducibility of total striatal binding” value was “demonstrates reproducibility”. The “time post injection by which washout rates from striatum and occipital background are similar (stable striatal binding ratio)” value at dopamine transporter [4] (bolus injection) was in the range of 20 to 30 min. Also, the “time of peak striatal count densities post injection” value at dopamine transporter [4] (bolus injection, controls and Lewy Body Dementia subjects) came out at 10 min. Also, the “time of peak SBR post injection” value on dopamine transporter [4] (one and two imaging head reconstructions) is no less than 15 min.
